Like-named read-outs stand apart in the source and are kept apart here.
Columns and labels:
[1] = biological target: GST-Syk Full Protein (human) (Homo sapiens, UniProt P43405); test: Syk kinase inhibition test (HTRF method); assay type: biochemical; settings: read-out: sykHTRF ave IC50
Procedure, shortened: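 Human GST-Syk full-length (6.4 nM) phosphorylated biotin-EDPDYEWPSA-NH2 (250 nM) with 100 μM ATP in HEPES pH 7.0/MgCl2 buffer, 2% DMSO, 30 min at room temperature. EDTA stop, then HTRF detection (streptavidin-XL665, Eu anti-phosphotyrosine) after 1 h; 665/620 ratio read.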

[2] = tested on: cultured human mast cells; test: Degranulation inhibition test using cultured human mast cells (IgE cross-linking, β-Hexosaminidase release); assay type: cell-based; settings: read-out: human degranulation ave. IC50
Procedure, shortened: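 CD34+ cord-blood cells cultured ≥8 weeks with SCF/IL-6/IL-3; FcεRI primed 5 days with rhIL-4 (1 ng/mL) and hIgE (0.5 μg/mL). Compound (0.1% DMSO) preincubated 10 min at 37 °C, then anti-IgE (final 10 μg/mL) 30 min; released β-hexosaminidase read at 405 nm versus total lysate, IC50 (M).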

[3] = HTRF, 100 μM ATP, 30 min room temperature, average
[4] = Mast cell, cultured human mast cells, anti-hIgE stimulation, β-Hexosaminidase index, average
[5] = Mast cell, Tables 1-x, compounds A, cultured human mast cells

IC50 [1, 3] | IC50 [2, 4] | IC50 ([1]; Tables 1-x, compounds A) | IC50 [2, 5] | Compound | IC50 [2]
< 100 nM | 100 to 1000 nM | – | – | Cc1ccnc(Nc2cccc(-c3cnc([C@H](C)OC(=O)N(C)C)s3)n2)c1 [Compound A-345, dimethylcarbamic acid(S)-1-{5-[6-(4-methylpyridin-2-ylamino)pyridin-2-yl]thiazol-2-yl}ethyl ester] | –
100 to 1000 nM | 100 to 1000 nM | – | – | Cc1ccnc(Nc2cccc(-c3cnc([C@H](C)NC(=O)c4ccc(O)cc4)s3)n2)c1 [Compound A-347] | –
100 to 1000 nM | > 1000 nM | – | – | Cc1ccnc(Nc2cccc(-c3cnc([C@H](C)NC(=O)c4ccccc4)s3)n2)c1 [Compound A-348] | –
100 to 1000 nM | > 1000 nM | – | – | Cc1ccnc(Nc2cccc(-c3cnc([C@H](C)NC(=O)C4CCC(O)CC4)s3)n2)c1 (some centres unmarked) [Compound A-349] | –
100 to 1000 nM | 100 to 1000 nM | – | – | Cc1ccnc(Nc2cccc(-c3cnc([C@H](C)NC(=O)Cc4ccc(O)cc4)s3)n2)c1 [Compound A-352] | –
100 to 1000 nM | 100 to 1000 nM | – | – | Cc1ccnc(Nc2cccc(-c3cnc(COCC(N)=O)s3)n2)c1 [Compound A-354] | –
100 to 1000 nM | > 1000 nM | – | – | CC(=O)NCC(=O)N[C@@H](C)c1ncc(-c2cccc(Nc3cc(C)ccn3)n2)s1 [Compound A-355] | –
100 to 1000 nM | 100 to 1000 nM | – | – | COC(=O)N(C)Cc1ncc(-c2cccc(Nc3cc(C)ccn3)n2)s1 [Compound A-356] | –
100 to 1000 nM | > 1000 nM | – | – | Cc1ccnc(Nc2cccc(-c3cnc(CN(C)C(=O)N(C)C)s3)n2)c1 [Compound A-357] | –
100 to 1000 nM | 100 to 1000 nM | – | – | Cc1ccnc(Nc2cccc(-c3cnc(CN(C)C(=O)C4CC4)s3)n2)c1 [Compound A-358] | –
> 1000 nM | > 1000 nM | – | – | CC(=O)Oc1ccc(CC(OC(C)=O)c2ncc(-c3cccc(Nc4cc(C)ccn4)n3)s2)cc1 (centres unmarked) [Compound A-360] | –
100 to 1000 nM | 100 to 1000 nM | – | – | COC(=O)COCc1ncc(-c2cccc(Nc3cc(C)ccn3)n2)s1 [Compound A-361] | –
< 100 nM | 100 to 1000 nM | – | – | Cc1ccnc(Nc2cccc(-c3cnc(C(O)Cc4ccc(O)cc4)s3)n2)c1 (centres unmarked) [Compound A-362, 4-(2-hydroxy-2-{5-[6-(4-methylpyridin-2-ylamino)pyridin-2-yl]thiazol-2-yl}ethyl)phenol] | –
100 to 1000 nM | 100 to 1000 nM | – | – | CC(=O)OC(Cc1ccc(O)cc1)c1ncc(-c2cccc(Nc3cc(C)ccn3)n2)s1 (centres unmarked) [Compound A-366] | –
100 to 1000 nM | 100 to 1000 nM | – | – | CNC(=O)COCc1ncc(-c2cccc(Nc3cc(C)ccn3)n2)s1 [Compound A-367] | –
100 to 1000 nM | 100 to 1000 nM | – | – | Cc1ccnc(Nc2cccc(-c3cnc(COCC(=O)N(C)C)s3)n2)c1 [Compound A-368] | –
< 100 nM | 100 to 1000 nM | – | – | CC(=O)N(C)[C@H](c1ccc(O)cc1)c1ncc(-c2cccc(Nc3cc(C)ccn3)n2)s1 [Compound A-372, N—((R)-(4-hydroxyphenyl)-{5-[6-(4-methylpyridin-2-ylamino)pyridin-2-yl]thiazol-2-yl}methyl)-N-methylacetamide] | –
100 to 1000 nM | 100 to 1000 nM | – | – | Cc1ccnc(Nc2cccc(-c3cnc([C@@H]4CCC(=O)N4C)s3)n2)c1 [Compound A-373] | –
100 to 1000 nM | 100 to 1000 nM | – | – | Cc1ccnc(Nc2cccc(-c3cnc([C@@H](O)CN(C)C)s3)n2)c1 [Compound A-375] | –
– | – | 100 to 1000 nM | 100 to 1000 nM | CC(=O)N(C)[C@@H](Cc1ccc(O)cc1)c1ncc(-c2cccc(Nc3cc(C)ccn3)n2)s1 [Compound A-376] | –
– | – | 100 to 1000 nM | 100 to 1000 nM | Cc1ccnc(Nc2cccc(-c3cnc(C4CCN(C(=O)c5ccc(O)cc5)CC4)s3)n2)c1 [Compound A-378] | –
– | – | 100 to 1000 nM | 100 to 1000 nM | CN[C@@H](Cc1ccc(O)cc1)c1ncc(-c2cccc(Nc3cc(C)ccn3)n2)s1 [Compound A-384] | –
– | – | > 1000 nM | > 1000 nM | Cc1ccnc(Nc2cccc(-c3cnc(CN4C(=O)CN(Cc5ccccc5)CC4=O)s3)n2)c1 [Compound A-391] | –
– | – | 100 to 1000 nM | 100 to 1000 nM | Cc1ccnc(Nc2cccc(-c3cnc([C@H](CO)NC(=O)c4ccc(O)cc4)s3)n2)c1 [Compound A-394] | –
– | – | 100 to 1000 nM | > 1000 nM | Cc1ccnc(Nc2cccc(-c3cnc(CNC(=O)c4cc(C)on4)s3)n2)c1 [Compound A-395] | –
– | – | 100 to 1000 nM | > 1000 nM | Cc1ccnc(Nc2cccc(-c3cnc(CNC(=O)c4c[nH]cn4)s3)n2)c1 [Compound A-396] | –
– | – | > 1000 nM | > 1000 nM | Cc1ccnc(Nc2cccc(-c3cnc(COCC(=O)N4C[C@H](NCc5ccccc5)[C@@H](O)C4)s3)n2)c1 [Compound A-399] | –

Continued, compound first:

Compound | IC50 [1, 3] | IC50 [2, 4] | IC50 ([1]; Tables 1-x, compounds A) | IC50 [2, 5] | IC50 [2]
C[C@H](O)c1ncc(-c2cccc(Nc3cc(OCCO)ccn3)n2)s1 [Compound A-344, (S)-1-(5-{6-[4-(2-hydroxyethoxy)pyridin-2-ylamino]pyridin-2-yl}thiazol-2-yl)ethanol] | < 100 nM | < 100 nM | – | – | –
Cc1ccnc(Nc2cccc(-c3cnc(COC(=O)N4CCOCC4)s3)n2)c1 [Compound A-346] | 100 to 1000 nM | 100 to 1000 nM | – | – | –
Cc1ccnc(Nc2cccc(-c3cnc(CN4C(=O)CCCC4=O)s3)n2)c1 [Compound A-350] | 100 to 1000 nM | 100 to 1000 nM | – | – | –
Cc1ccnc(Nc2cccc(-c3cnc(CN4CCNC(=O)C4)s3)n2)c1 [Compound A-351, potassium carbonate 4-{5-[6-(4-methylpyridin-2-ylamino)pyridin-2-yl]thiazol-2-ylmethyl}piperazin-2-one] | < 100 nM | – | – | – | 100 to 1000 nM
Cc1ccnc(Nc2cccc(-c3cnc(C4CCN(S(C)(=O)=O)CC4)s3)n2)c1 [Compound A-353] | 100 to 1000 nM | 100 to 1000 nM | – | – | –
CNC(=O)N1CCC(c2ncc(-c3cccc(Nc4cc(C)ccn4)n3)s2)CC1 [Compound A-359] | 100 to 1000 nM | 100 to 1000 nM | – | – | –
Cc1ccnc(Nc2cccc(-c3cnc([C@@H]4CCCC(=O)N4)s3)n2)c1 [Compound A-363] | 100 to 1000 nM | 100 to 1000 nM | – | – | –
Cc1ccnc(Nc2cccc(-c3cnc([C@@H]4CCCC(=O)N4C)s3)n2)c1 [Compound A-364] | 100 to 1000 nM | 100 to 1000 nM | – | – | –
Cc1ccnc(Nc2cccc(-c3cnc([C@@H]4COC(C)(C)O4)s3)n2)c1 [Compound A-365] | 100 to 1000 nM | 100 to 1000 nM | – | – | –
Cc1ccnc(Nc2cccc(-c3cnc(COCC(=O)N4CCC(O)CC4)s3)n2)c1 [Compound A-369] | 100 to 1000 nM | > 1000 nM | – | – | –
Cc1ccnc(Nc2cccc(-c3cnc(COCC(=O)N4CCNC(=O)C4)s3)n2)c1 [Compound A-370, 4-(2-{5-[6-(4-methylpyridin-2-ylamino)pyridin-2-yl]thiazol-2-ylmethoxy}acetyl)piperazin-2-one] | < 100 nM | 100 to 1000 nM | – | – | –
Cc1ccnc(Nc2cccc(-c3cnc(C4CCN(C(=O)N(C)C)CC4)s3)n2)c1 [Compound A-371] | 100 to 1000 nM | 100 to 1000 nM | – | – | –
Cc1ccnc(Nc2cccc(-c3cnc(COCC(=O)N4C[C@@H](O)[C@@H](O)C4)s3)n2)c1 [Compound A-374] | 100 to 1000 nM | > 1000 nM | – | – | –
CC(=O)Oc1ccc(C(=O)N2CCC(c3ncc(-c4cccc(Nc5cc(C)ccn5)n4)s3)CC2)cc1 [Compound A-377] | – | – | 100 to 1000 nM | 100 to 1000 nM | –
Cc1ccnc(Nc2cccc(-c3cnc(CN4CCC[C@H]4CO)s3)n2)c1 [Compound A-379] | – | – | 100 to 1000 nM | 100 to 1000 nM | –
Cc1ccnc(Nc2cccc(-c3cnc(CN4CCC(O)C4)s3)n2)c1 (centres unmarked) [Compound A-380] | – | – | 100 to 1000 nM | 100 to 1000 nM | –
Cc1ccnc(Nc2cccc(-c3cnc(CN4C[C@@H](O)[C@@H](O)C4)s3)n2)c1 [Compound A-381] | – | – | 100 to 1000 nM | 100 to 1000 nM | –
Cc1ccnc(Nc2cccc(-c3cnc(CN4CCN(c5ccc(O)cc5)CC4)s3)n2)c1 [Compound A-382] | – | – | 100 to 1000 nM | 100 to 1000 nM | –
Cc1ccnc(Nc2cccc(-c3cnc(CN4CC(=O)NC(=O)C4)s3)n2)c1 [Compound A-383, 4-{5-[6-(4-methylpyridin-2-ylamino)pyridin-2-yl]thiazol-2-ylmethyl}piperazine-2,6-dione] | – | – | < 100 nM | 100 to 1000 nM | –
Cc1ccnc(Nc2cccc(-c3cnc(CN4C(=O)CC(C)(C)CC4=O)s3)n2)c1 [Compound A-385] | – | – | 100 to 1000 nM | 100 to 1000 nM | –
Cc1ccnc(Nc2cccc(-c3cnc(CNC4CCN(C(=O)OC(C)(C)C)CC4)s3)n2)c1 [Compound A-386] | – | – | 100 to 1000 nM | 100 to 1000 nM | –
Cc1ccnc(Nc2cccc(-c3cnc(CN4C(=O)COCC4=O)s3)n2)c1 [Compound A-387] | – | – | 100 to 1000 nM | 100 to 1000 nM | –
Cc1ccnc(Nc2cccc(-c3cnc(COCC(=O)N4CCN(C)C(=O)C4)s3)n2)c1 [Compound A-388] | – | – | > 1000 nM | > 1000 nM | –
Cc1ccnc(Nc2cccc(-c3cnc(C4CCCNC4)s3)n2)c1 (centres unmarked) [Compound A-390] | – | – | 100 to 1000 nM | 100 to 1000 nM | –
Cc1ccnc(Nc2cccc(-c3cnc(C4CCCN(S(C)(=O)=O)C4)s3)n2)c1 (centres unmarked) [Compound A-392] | – | – | 100 to 1000 nM | 100 to 1000 nM | –
Cc1ccnc(Nc2cccc(-c3cnc(COCC(=O)N4CC(=O)NC(=O)C4)s3)n2)c1 [Compound A-393] | – | – | 100 to 1000 nM | > 1000 nM | –
Cc1ccnc(Nc2cccc(-c3cnc(C4CCN(C(=O)CS(C)(=O)=O)CC4)s3)n2)c1 [Compound A-397] | – | – | 100 to 1000 nM | 100 to 1000 nM | –
Cc1ccnc(Nc2cccc(-c3cnc(C4CCN(S(=O)(=O)C(C)C)CC4)s3)n2)c1 [Compound A-398] | – | – | 100 to 1000 nM | > 1000 nM | –
